Where a name gives a salt, the structure may show the parent alone.
melting point	SMILES
247.3 to 250.7 °C	C[C@@H]1CCCN1CCc1ccc2cc(Br)ccc2c1 (as salt: HCl) [Example 2, (2R)-1-[2-(6-bromo-2-naphthyl)ethyl]-2-methylpyrrolidine]
212.6 to 213.6 °C	C[C@@H]1CCCN1Cc1ccc2cc(-c3ccc(C#N)cc3)ccc2c1 (as salt: hydrochloride) [Example 6, 4-(6-{[(2R)-2-methyl-1-pyrrolidinyl]methyl}-2-naphthyl)benzonitrile]
145 °C	C[C@@H]1CCCN1CCc1ccc2cc(-c3ccc(F)cc3)ccc2n1 (as salt: hydrochloride) [Example 43, 6-(4-fluorophenyl)-2-{2-[(2R)-2-methyl-1-pyrrolidinyl]ethyl}quinoline]
165 °C (dec.)	COc1ccc(-c2ccc3nc(CCN4CCC[C@H]4C)ccc3c2)cc1 (as salt: hydrochloride) [Example 46, 6-(4-methoxyphenyl)-2-{2-[(2R)-2-methyl-1-pyrrolidinyl]ethyl}quinoline]
143 to 145 °C (dec.)	C[C@@H]1CCCN1CCc1ccc2cc(-c3ccc(C(F)(F)F)cc3)ccc2n1 (as salt: hydrochloride) [Example 47, 2-{2-[(2R)-2-methyl-1-pyrrolidinyl]ethyl}-6-[4-(trifluoromethyl)phenyl]quinoline]
162 to 164 °C (dec.)	C[C@@H]1CCCN1CCc1ccc2cc(C(=O)c3cccc(F)c3)ccc2n1 (as salt: hydrochloride) [Example 50, (3-fluorophenyl)(2-{2-[(2R)-2-methyl-1-pyrrolidinyl]ethyl}-6-quinolinyl)methanone]
205 to 207 °C	C[C@@H]1CCCN1CCc1ccc2cc(-c3cccnc3)ccc2n1 (as salt: hydrochloride) [Example 51, 2-{2-[(2R)-2-methyl-1-pyrrolidinyl]ethyl}-6-(3-pyridinyl)quinoline]
164 °C	C[C@@H]1CCCN1CCc1ccc2cc(-c3ccc(C#N)cc3)ccc2n1 (as salt: tartrate) [Example 42, 4-(2-{2-[(2R)-2-methyl-1-pyrrolidinyl]ethyl}-6-quinolinyl)benzonitrile]
228.5 to 231.6 °C	C[C@@H]1CCCN1CCc1ccc2cc(-c3cccc(C#N)c3)ccc2c1 [Example 7, 3-(6-{2-[(2R)-2-methyl-1-pyrrolidinyl]ethyl}-2-naphthyl)benzonitrile]

— patent publication US20040092521A1, “Bicyclic-substituted amines as histamine-3 receptor ligands” (priority 2002, published 2004)
